This passage reports AC50 results from patent US20240067660A1, “MACROCYCLIC SPIROCYCLE DERIVATIVES AS MCL-1 INHIBITORS” (Janssen Pharmaceutica NV, priority 2019, published 2024).

Like-named read-outs stand apart in the source and are kept apart here.

The test system of this test is MOLP8 cells. Description: MOLP8 CellEvent Caspase-3/7 Green IncuCyte live-cell apoptosis assay. The test is classed as cell-based, human. On the procedure:
MCL-1 is a regulator of apoptosis and is highly over-expressed in tumor cells that escape cell death. The assay evaluates the cellular potency of small-molecule compounds targeting regulators of the apoptosis pathway, primarily MCL-1, Bfl-1, Bcl-2, and other proteins of the Bcl-2 family. Protein-protein inhibitors disrupting the interaction of anti-apoptotic regulators with BH3-domain proteins initiate apoptosis.
Activation of the apoptotic pathway was measured using the CellEvent™ Caspase-3/7 Green ReadyProbes™ Reagent (Thermo Fisher C10423, C10723). This assay produces a green fluorescent stain in cells that enter the apoptosis pathway. CellEvent® Caspase-3/7 Green reagent is a four amino acid peptide (DEVD) conjugated to a nucleic acid-binding dye that is non-fluorescent when not bound to DNA. The CellEvent® Caspase-3/7 Green reagent is intrinsically non-fluorescent, as the DEVD peptide inhibits binding of the dye to DNA. Upon activation of caspase-3/7 in apoptotic cells, the DEVD peptide is cleaved and the free dye can bind DNA, generating a bright green fluorescence. The activation of Caspase-3 and Caspase-7 is downstream of inhibition of MCL-1 or other apoptosis inhibiting proteins in cell lines that are dependent on them.
The live-cell readout on the IncuCyte permits tracking over time of the Caspase activation. […] The IncuCyte readout also allows one to normalize for cell number, as the suspension cells are hard to distribute evenly.
Signals were measured every 2 h for a duration of 22 h. The ratio of the Caspase mask to the Confluence mask, per image, as raw data, was calculated and the kinetic trace for every well was exported to Genedata Screener for analysis.
In Genedata Screener values for 6 h, 12 h, and 22 h from the kinetic traces were extracted. The values were normalized against negative controls (untreated cells). A standard dose-response analysis was performed on the normalized data.
The following data was reported at each of the following three aforementioned time points: (a) The dose-response curve, (b) The qAC50 and qAC50 Mode, and (c) Max Activity.
Cells were maintained in culture medium containing 10% Heat Inactivated (HI) FBS, 2 mM L-Glutamine and 50 μg/mL Gentamycin phenol red free RPMI-1640. Cells were split at 0.4 million/mL twice a week.
On Day 1, plates containing individual wells with test compounds at 10 mM concentration, 150 nL per well. The final concentrations range from […] compound (and no compound control) and compounds were thawed at room temperature for 1 hour. 25 μl of prewarmed medium was added into each well by multidrop (column 1, 3-22, 24), followed by addition of DMSO control (0.6% DMSO) in column 2. The plate was sealed using Breathe-Easy® sealing membrane and shaken for 30 min at room temperature to dissolve the test compound(s) in medium. The plate was then kept in the incubator for 1 hour at 37° C., 5% CO2.
MOLP8 cells in medium at […] (20000/50 μl final in assay) were prepared with CellEvent™ Caspase-3/7 Green Detection Reagent at 4 μM (2 μM final in assay). Once prepared, the cells were added to the test compound plate in an amount of 20000 and the plate was immediately placed in the IncuCyte and imaging started using following settings: 10× objective, 2 s exposure time in green channel, interval of 2 h, acquisition stopped after 22 h.
For analysis in IncuCyte, a Basic Analysis protocol was defined to calculate the “confluence” and “caspase” areas from the “Phase” and “green” images, respectively, as follows: (a) Confluence: Segmentation Adjustment 1, Hole Fill 0, Adjust Size −2, No filters (b) Caspase: Top-Hat segmentation, Radius 10, Threshold 0.3 GCU, Edge Split On with sensitivity 0, Hole Fill 0, Adjust Size 1, and filter on a minimum Area of 20 μm^2. The analyzer is trained on a sufficient number of positive and negative control wells, as well as compound treated wells, verifying that the “confluence” layer detects both live and dead (condensed) cells. […]

The mark [1] stands for this setting: Homo sapiens, MOLP-8, 6 h, 6 h, read-out: MOLP8 Caspase 3/7 AC50 at 6 h.
Setting [2] is: Homo sapiens, MOLP-8, 12 h, 12 h, read-out: MOLP8 Caspase 3/7 AC50 at 12 h.
[3] abbreviates: Homo sapiens, MOLP-8, 22 h, 22 h, read-out: MOLP8 Caspase 3/7 AC50 at 22 h.

As to `C[C@@H]1[C@@H](C)C/C=C(\F)[C@H](COCC(=O)N2CCOCC2)N2CC[C@H]2CN2C[C@@]3(CCCc4cc(Cl)ccc43)COc3ccc(cc32)C(=O)NS1(=O)=O` [Compound 18], the AC50 came to 0.66 µM under setting [1], 0.57 µM under setting [2] and 0.6 µM under setting [3].

`COCC1/C=C/C[C@H](C)[C@@H](C)S(=O)(=O)NC(=O)c2ccc3c(c2)N(C[C@@H]2CCCN12)C[C@@]1(CCCc2cc(Cl)ccc21)CO3` (single isomer, unassigned) [Compound 8]: the AC50 was determined as 2.39 µM under setting [1], 2.49 µM under setting [2] and 2.84 µM under setting [3].

For `COC[C@H]1/C=C/C[C@@H](C)[C@@H](C)S(=O)(=O)NC(=O)c2ccc3c(c2)N(C[C@@H]2CCN21)C[C@@]1(CCCc2cc(Cl)ccc21)CO3` [Compound 4], the AC50 is ~1.31 µM under setting [1], 1.2 µM under setting [2] and ~1.38 µM under setting [3].

Take `CC(C)COC[C@H]1/C(F)=C/C[C@H](C)[C@@H](C)S(=O)(=O)NC(=O)c2ccc3c(c2)N(C[C@@H]2CCN21)C[C@@]1(CCCc2cc(Cl)ccc21)CO3` [Compound 15]: the AC50 turned out to be 2.43 µM under setting [1], 2.4 µM under setting [2] and 2.42 µM under setting [3].

With `COC[C@H]1/C(F)=C/C[C@H](C)[C@@H](C)S(=O)(=O)NC(=O)c2ccc3c(c2)N(C[C@@H]2CCN21)C[C@@]1(CCCc2cc(Cl)ccc21)CO3` [Compound 13], the AC50 came to 0.52 µM under setting [1], 0.53 µM under setting [2] and 0.56 µM under setting [3].

Consider `C[C@@H]1[C@@H](C)C/C=C(\F)[C@H](COc2ccccn2)N2CC[C@H]2CN2C[C@@]3(CCCc4cc(Cl)ccc43)COc3ccc(cc32)C(=O)NS1(=O)=O` [Compound 11], for which the AC50 was 2.38 µM under setting [1], 2.32 µM under setting [2] and 2.52 µM under setting [3].

With `COC[C@@H]1/C=C/C[C@@H](C)[C@@H](C)S(=O)(=O)NC(=O)c2ccc3c(c2)N(C[C@@H]2CCN21)C[C@@]1(CCCc2cc(Cl)ccc21)CO3` [Compound 7], the AC50 under setting [1] is 2.16 µM, the AC50 under setting [2] was 1.72 µM and the AC50 under setting [3] is 1.9 µM.

On to `C[C@@H]1[C@@H](C)C/C=C/C(CO)N2CC[C@H]2CN2C[C@@]3(CCCc4cc(Cl)ccc43)COc3ccc(cc32)C(=O)NS1(=O)=O` (single isomer, unassigned) [Compound 10], for which the AC50 reads like this: under setting [1], 3.07 µM; under setting [2], 3.24 µM; under setting [3], 3.43 µM.

For `C[C@@H]1[C@@H](C)C/C=C(\F)[C@H](COCC2CCC2)N2CC[C@H]2CN2C[C@@]3(CCCc4cc(Cl)ccc43)COc3ccc(cc32)C(=O)NS1(=O)=O` [Compound 26], the AC50 is, setting by setting: under setting [1], 3.54 µM; under setting [2], 3.57 µM; under setting [3], 3.06 µM.

Consider `C[C@@H]1[C@@H](C)C/C=C(\F)[C@H](COCC(=O)N2CC(F)(F)C2)N2CC[C@H]2CN2C[C@@]3(CCCc4cc(Cl)ccc43)COc3ccc(cc32)C(=O)NS1(=O)=O` [Compound 19], for which the AC50 runs as follows: under setting [1], 0.39 µM; under setting [2], 0.4 µM; under setting [3], 0.43 µM.

On to `COCCCOC[C@H]1/C(F)=C/C[C@H](C)[C@@H](C)S(=O)(=O)NC(=O)c2ccc3c(c2)N(C[C@@H]2CCN21)C[C@@]1(CCCc2cc(Cl)ccc21)CO3` [Compound 22], for which the AC50 is, setting by setting: under setting [1], 0.55 µM; under setting [2], 0.57 µM; under setting [3], 0.62 µM.

As for `C[C@@H]1[C@@H](C)C/C=C(\F)[C@H](COCC(=O)O)N2CC[C@H]2CN2C[C@@]3(CCCc4cc(Cl)ccc43)COc3ccc(cc32)C(=O)NS1(=O)=O` [Compound 17], the AC50 is, setting by setting: under setting [1], 11.1 µM; under setting [2], 10 µM; under setting [3], 9.61 µM.

Consider `C[C@@H]1[C@@H](C)C/C=C(\F)[C@H](COCCC2CCOCC2)N2CC[C@H]2CN2C[C@@]3(CCCc4cc(Cl)ccc43)COc3ccc(cc32)C(=O)NS1(=O)=O` [Compound 23], for which the AC50 under setting [1] was 1.11 µM, the AC50 under setting [2] was found to be 1.04 µM and the AC50 under setting [3] worked out at 1.15 µM.

Consider `C[C@@H]1[C@@H](C)C/C=C(\F)[C@H](CF)N2CC[C@H]2CN2C[C@@]3(CCCc4cc(Cl)ccc43)COc3ccc(cc32)C(=O)NS1(=O)=O` [Compound 31], for which the AC50 stood at 1.09 µM under setting [1], 0.9 µM under setting [2] and 0.94 µM under setting [3].

Consider `CCOC[C@H]1/C(F)=C/C[C@H](C)[C@@H](C)S(=O)(=O)NC(=O)c2ccc3c(c2)N(C[C@@H]2CCN21)C[C@@]1(CCCc2cc(Cl)ccc21)CO3` [Compound 16], for which the AC50 reads like this: under setting [1], 0.45 µM; under setting [2], 0.45 µM; under setting [3], 0.48 µM.

Consider `C[C@@H]1[C@@H](C)C/C=C(\F)[C@H](CO)N2CC[C@H]2CN2C[C@@]3(CCCc4cc(Cl)ccc43)COc3ccc(cc32)C(=O)NS1(=O)=O` [Compound 9], for which the AC50 was 0.4 µM under setting [1], 0.4 µM under setting [2] and 0.4 µM under setting [3].

Consider `Cc1nc(COC[C@H]2/C(F)=C/C[C@H](C)[C@@H](C)S(=O)(=O)NC(=O)c3ccc4c(c3)N(C[C@@H]3CCN32)C[C@@]2(CCCc3cc(Cl)ccc32)CO4)no1` [Compound 24], for which the AC50 runs as follows: under setting [1], 0.39 µM; under setting [2], 0.41 µM; under setting [3], 0.4 µM.

As to `C[C@@H]1[C@@H](C)C/C=C(\F)[C@H](COc2ccccn2)N2CC[C@@H]2CN2C[C@@]3(CCCc4cc(Cl)ccc43)COc3ccc(cc32)C(=O)NS1(=O)=O` [Compound 12], the AC50 by setting is: (6 h, read-out: MOLP8 Caspase 3/7 AC50 at 6 h) 1.22 µM; (12 h, read-out: MOLP8 Caspase 3/7 AC50 at 12 h) 1.12 µM; (22 h, read-out: MOLP8 Caspase 3/7 AC50 at 22 h) 1.33 µM.

With `C[C@@H]1[C@@H](C)C/C=C(\F)[C@H](COCCCN2CCOCC2)N2CC[C@H]2CN2C[C@@]3(CCCc4cc(Cl)ccc43)COc3ccc(cc32)C(=O)NS1(=O)=O` [Compound 25], the AC50 stood at 0.36 µM under setting [1], 0.36 µM under setting [2] and 0.36 µM under setting [3].
